In the oligonucleotide strings, read from the 5' end, every base follows the letter of its sugar. An asterisk marks phosphorothioate; unmarked linkages are phosphodiester. Other units and linkages are bracketed, terminal groups are in braces. A string of capitals states the bases alone. d = 2'-deoxy (DNA); r = 2'-OH (RNA)
Tested on: PCSK9 mRNA
Test: PCSK9 siRNA screening in HepG2 cells (lipofectamine 2000 transfection, PCSK9 mRNA by Quantigene, normalized to GAP-DH)
Assay type: cell-based, human
Settings: for Mean percent remaining mRNA transcript at siRNA concentration/in cell type 30 nM/HepG2: 30 nM siRNA; for Mean percent remaining mRNA transcript at siRNA concentration/in cell type 100 nM/HepG2: 100 nM siRNA; for Mean percent remaining mRNA transcript at siRNA concentration/in cell type 3 nM/HepG2: 3 nM siRNA
Outline: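 HepG2 cells, grown in MEM with 10% fetal calf serum, antibiotics, non-essential amino acids and sodium pyruvate at 37° C. and 5% CO2, were plated at 2.0×10^4 cells/well in 96-well plates and transfected directly with siRNA using lipofectamine 2000. After 24 hours, cells were lysed and PCSK9 mRNA was measured by Quantigene and normalized to GAP-DH mRNA.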

Substance	Mean percent remaining mRNA transcript at siRNA concentration/in cell type 30 nM/HepG2	Mean percent remaining mRNA transcript at siRNA concentration/in cell type 100 nM/HepG2	IC50	Mean percent remaining mRNA transcript at siRNA concentration/in cell type 3 nM/HepG2
AD-9602: PCSK9 siRNA (sense rCrArGrCrGrGrCrCrGrGrGrArUrGrCrCrGrGrCdT*dT; antisense rGrCrCrGrGrCrArUrCrCrCrGrGrCrCrGrCrUrGdT*dT)	126%	–	–	–
AD-9603: PCSK9 siRNA (sense rUrUrUrCrUrGrGrArUrGrGrCrArUrCrUrArGrCdT*dT; antisense rGrCrUrArGrArUrGrCrCrArUrCrCrArGrArArAdT*dT)	123%	–	–	–
AD-9604: PCSK9 siRNA (sense rCrUrCrArGrCrCrArArCrCrCrGrCrUrCrCrArCdT*dT; antisense rGrUrGrGrArGrCrGrGrGrUrUrGrGrCrUrGrArGdT*dT)	49%	35%	–	–
AD-9605: PCSK9 siRNA (sense rUrGrGrUrGrArArGrArUrGrArGrUrGrGrCrGrAdT*dT; antisense rUrCrGrCrCrArCrUrCrArUrCrUrUrCrArCrCrAdT*dT)	27%	–	0.27 nM	31%
AD-9606: PCSK9 siRNA (sense rUrCrGrUrGrCrUrGrGrUrCrArCrCrGrCrUrGrCdT*dT; antisense rGrCrArGrCrGrGrUrGrArCrCrArGrCrArCrGrAdT*dT)	107%	–	–	–
AD-9607: PCSK9 siRNA (sense rGrGrArGrCrUrGrGrUrGrCrUrArGrCrCrUrUrGdT*dT; antisense rCrArArGrGrCrUrArGrCrArCrCrArGrCrUrCrCdT*dT)	32%	–	0.2 nM	28%
AD-9608: PCSK9 siRNA (sense rUrGrCrUrArGrCrCrUrUrGrCrGrUrUrCrCrGrAdT*dT; antisense rUrCrGrGrArArCrGrCrArArGrGrCrUrArGrCrAdT*dT)	37%	–	–	–
AD-9609: PCSK9 siRNA (sense rCrArCrGrGrUrArCrCrGrGrGrCrGrGrArUrGrAdT*dT; antisense rUrCrArUrCrCrGrCrCrCrGrGrUrArCrCrGrUrGdT*dT)	71%	66%	–	–
AD-9610: PCSK9 siRNA (sense rArGrGrUrGrUrArUrCrUrCrCrUrArGrArCrArCdT*dT; antisense rGrUrGrUrCrUrArGrGrArGrArUrArCrArCrCrUdT*dT)	36%	–	0.04 nM	34%
AD-9611: PCSK9 siRNA (sense rUrCrCrUrArGrArCrArCrCrArGrCrArUrArCrAdT*dT; antisense rUrGrUrArUrGrCrUrGrGrUrGrUrCrUrArGrGrAdT*dT)	48%	–	–	–
AD-9612: PCSK9 siRNA (sense rArCrCrArCrCrGrGrGrArArArUrCrGrArGrGrGdT*dT; antisense rCrCrCrUrCrGrArUrUrUrCrCrCrGrGrUrGrGrUdT*dT)	122%	–	–	–
AD-9614: PCSK9 siRNA (sense rGrGrCrArArCrUrUrCrCrGrGrGrArCrGrArUrGdT*dT; antisense rCrArUrCrGrUrCrCrCrGrGrArArGrUrUrGrCrCdT*dT)	100%	–	–	–
AD-9615: PCSK9 siRNA (sense rUrUrCrCrGrGrGrArCrGrArUrGrCrCrUrGrCrCdT*dT; antisense rGrGrCrArGrGrCrArUrCrGrUrCrCrCrGrGrArAdT*dT)	116%	–	–	–
AD-9616: PCSK9 siRNA (sense rArGrCrArCrCrUrGrCrUrUrUrGrUrGrUrCrArCdT*dT; antisense rGrUrGrArCrArCrArArArGrCrArGrGrUrGrCrUdT*dT)	84%	74%	–	–
AD-9617: PCSK9 siRNA (sense rArUrGrCrUrGrUrCrUrGrCrCrGrArGrCrCrGrGdT*dT; antisense rCrCrGrGrCrUrCrGrGrCrArGrArCrArGrCrArUdT*dT)	111%	–	–	–
AD-9618: PCSK9 siRNA (sense rGrArGrCrArUrGrGrArArUrCrCrCrGrGrCrCrCdT*dT; antisense rGrGrGrCrCrGrGrGrArUrUrCrCrArUrGrCrUrCdT*dT)	90%	–	–	–
AD-9619: PCSK9 siRNA (sense rUrCrArGrGrArGrCrCrGrGrGrArCrGrUrCrArGdT*dT; antisense rCrUrGrArCrGrUrCrCrCrGrGrCrUrCrCrUrGrAdT*dT)	61%	42%	–	–
AD-9620: PCSK9 siRNA (sense rCrArGrGrArGrCrCrGrGrGrArCrGrUrCrArGrCdT*dT; antisense rGrCrUrGrArCrGrUrCrCrCrGrGrCrUrCrCrUrGdT*dT)	77%	44%	–	–
AD-9621: PCSK9 siRNA (sense rUrCrUrGrGrArUrGrGrCrArUrCrUrArGrCrCrAdT*dT; antisense rUrGrGrCrUrArGrArUrGrCrCrArUrCrCrArGrAdT*dT)	77%	–	–	–
AD-9622: PCSK9 siRNA (sense rCrUrGrUrCrCrCrUrCrCrUrUrGrArGrCrArCrCdT*dT; antisense rGrGrUrGrCrUrCrArArGrGrArGrGrGrArCrArGdT*dT)	94%	–	–	–
AD-9623: PCSK9 siRNA (sense rGrUrCrArGrCrUrCrCrArGrGrCrGrGrUrCrCrUdT*dT; antisense rArGrGrArCrCrGrCrCrUrGrGrArGrCrUrGrArCdT*dT)	66%	43%	–	–
AD-9624: PCSK9 siRNA (sense rCrGrUrCrArGrCrUrCrCrArGrGrCrGrGrUrCrCdT*dT; antisense rGrGrArCrCrGrCrCrUrGrGrArGrCrUrGrArCrGdT*dT)	94%	–	–	–
AD-9625: PCSK9 siRNA (sense rCrUrGrGrUrGrGrArGrGrUrGrUrArUrCrUrCrCdT*dT; antisense rGrGrArGrArUrArCrArCrCrUrCrCrArCrCrArGdT*dT)	88%	58%	–	–
AD-9626: PCSK9 siRNA (sense rUrGrArArGrArUrArUrUrUrArUrUrCrUrGrGrGdT*dT; antisense rCrCrCrArGrArArUrArArArUrArUrCrUrUrCrAdT*dT)	97%	–	–	68%
AD-9627: PCSK9 siRNA (sense rArGrArGrArCrUrGrArUrCrCrArCrUrUrCrUrCdT*dT; antisense rGrArGrArArGrUrGrGrArUrCrArGrUrCrUrCrUdT*dT)	69%	–	–	–
AD-9628: PCSK9 siRNA (sense rUrUrCrUrCrUrGrCrCrArArArGrArUrGrUrCrAdT*dT; antisense rUrGrArCrArUrCrUrUrUrGrGrCrArGrArGrArAdT*dT)	141%	–	–	–

Reference: patent US20120016009A1, “Optimized Methods For Delivery Of DSRNA Targeting The PCSK9 Gene” (priority 2008, published 2012)
